Laboratory results reported in patent publication US9714247B2, “Multiple kinase pathway inhibitors” (Mannkind Corporation, priority 2012, dated 2017).
Like-named read-outs stand apart in the source and are kept apart here.

Columns and labels:
BTK = BTK (Homo sapiens (Human), UniProt Q06187)
Ramos = experiment: CellTiter-Glo proliferation/viability assay; assay type: cell-based, human
Lyn [1] = biological target: T1, Lyn (Homo sapiens (Human), UniProt P07948); experiment: biochemical
DoHH2 = experiment: CellTiter-Glo proliferation/viability assay; assay type: cell-based, human; conditions: Homo sapiens, read-out: DoHH2 EC50
Src = Src (Homo sapiens (Human), UniProt P12931); conditions: read-out: Src IC50
Sequence of Src (P12931 whole entry, looked up): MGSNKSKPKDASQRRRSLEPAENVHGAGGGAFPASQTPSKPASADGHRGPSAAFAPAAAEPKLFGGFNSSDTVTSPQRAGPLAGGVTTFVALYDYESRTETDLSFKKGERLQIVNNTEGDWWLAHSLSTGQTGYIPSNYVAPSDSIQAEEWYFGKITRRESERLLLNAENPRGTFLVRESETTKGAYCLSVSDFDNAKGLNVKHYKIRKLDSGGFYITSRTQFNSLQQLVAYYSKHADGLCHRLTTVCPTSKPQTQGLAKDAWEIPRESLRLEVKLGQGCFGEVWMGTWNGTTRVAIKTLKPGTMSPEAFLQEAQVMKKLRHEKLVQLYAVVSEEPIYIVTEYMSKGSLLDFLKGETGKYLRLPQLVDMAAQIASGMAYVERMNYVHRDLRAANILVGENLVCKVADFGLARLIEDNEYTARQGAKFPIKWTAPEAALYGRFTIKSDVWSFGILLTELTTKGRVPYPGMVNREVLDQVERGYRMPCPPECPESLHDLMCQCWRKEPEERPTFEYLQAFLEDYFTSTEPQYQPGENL

Lyn [2] = biological target: T1, Lyn; conditions: read-out: Lyn IC50
[3] = Homo sapiens, Ramos; 48 hrs; read-out: Ramos EC50

Sequence of BTK (Q06187 whole entry): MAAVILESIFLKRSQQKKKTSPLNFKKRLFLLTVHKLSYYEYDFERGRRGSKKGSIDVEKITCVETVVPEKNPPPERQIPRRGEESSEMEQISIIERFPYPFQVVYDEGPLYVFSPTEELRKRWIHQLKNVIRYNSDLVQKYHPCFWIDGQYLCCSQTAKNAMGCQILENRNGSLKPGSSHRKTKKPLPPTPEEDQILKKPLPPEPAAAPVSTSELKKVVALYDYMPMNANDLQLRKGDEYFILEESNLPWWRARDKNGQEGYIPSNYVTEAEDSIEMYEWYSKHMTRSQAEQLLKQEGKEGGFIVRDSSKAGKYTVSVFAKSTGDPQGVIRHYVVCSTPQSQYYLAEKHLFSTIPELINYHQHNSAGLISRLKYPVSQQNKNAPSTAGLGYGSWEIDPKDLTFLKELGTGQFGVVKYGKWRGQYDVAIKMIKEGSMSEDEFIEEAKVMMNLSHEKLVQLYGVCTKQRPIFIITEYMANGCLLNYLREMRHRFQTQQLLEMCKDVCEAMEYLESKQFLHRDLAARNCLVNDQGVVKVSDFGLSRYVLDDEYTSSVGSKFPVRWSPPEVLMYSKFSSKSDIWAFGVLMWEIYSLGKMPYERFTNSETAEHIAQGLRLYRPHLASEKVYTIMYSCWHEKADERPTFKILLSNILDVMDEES
T1 sequence (P07948 whole entry): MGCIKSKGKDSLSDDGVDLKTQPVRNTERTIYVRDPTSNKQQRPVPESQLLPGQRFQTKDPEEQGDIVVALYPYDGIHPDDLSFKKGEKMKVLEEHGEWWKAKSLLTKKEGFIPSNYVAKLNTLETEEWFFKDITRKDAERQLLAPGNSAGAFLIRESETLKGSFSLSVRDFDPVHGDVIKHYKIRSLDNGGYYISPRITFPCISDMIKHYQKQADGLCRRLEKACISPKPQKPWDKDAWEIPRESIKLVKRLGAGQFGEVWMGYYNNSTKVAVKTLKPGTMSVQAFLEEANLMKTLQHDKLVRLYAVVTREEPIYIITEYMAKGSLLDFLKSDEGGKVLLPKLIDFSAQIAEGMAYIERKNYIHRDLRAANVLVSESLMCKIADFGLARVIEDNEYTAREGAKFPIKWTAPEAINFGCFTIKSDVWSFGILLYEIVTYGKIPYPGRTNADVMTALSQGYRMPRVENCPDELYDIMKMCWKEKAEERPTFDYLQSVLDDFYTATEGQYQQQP

| SMILES | IC50 (BTK; read-out: BTK IC50) [µM] | EC50 (Ramos; [3]) [µM] | IC50 (Lyn [1]) [µM] | EC50 (DoHH2; DOHH-2, 48 hrs) [µM] | IC50 (Src) [µM] | EC50 (Ramos; Homo sapiens, Ramos, 48 h, read-out: Ramos EC50) [µM] | EC50 (DoHH2; DOHH-2, 48 h) [µM] | IC50 (Lyn [2]) [µM] | IC50 (BTK) [µM] | EC50 (Ramos; Homo sapiens, Ramos, 48 h; read-out: Ramos EC50) [µM] |
| --- | --- | --- | --- | --- | --- | --- | --- | --- | --- | --- |
| CCN(CC)CCOc1ccc(Nc2cc3c(cn2)cc(-c2ccccc2)c(=O)n3C)nc1 [Compound 15, 7-[5-(2-Diethylamino-ethoxy)-pyridin-2-ylamino]-1-methyl-3-phenyl-1H-[1,6]naphthyridin-2-one] | < 0.1 | 1 to 10 | 0.1 to 1 | < 1 | < 0.1 |  |  |  |  |  |
| CCN(CC)CCOc1ccc(Nc2cc3c(cn2)cc(-c2ccccc2)c(=O)n3C2CCCCC2)nc1 [Compound 74, 1-cyclohexyl-7-(5-(2-(diethylamino)ethoxy)pyridin-2-ylamino)-3-phenyl-1,6-naphthyridin-2(1H)-one] |  | 1 to 10 | 1 to 5 | 1 to 10 | < 0.1 |  |  |  |  |  |
| CCn1c(=O)c(-c2cc(SC)ccc2F)cc2cnc(Nc3ccc(N(C)C4CCN(C)CC4)cn3)cc21 [Compound 116, 1-ethyl-3-(2-fluoro-5-(methylthio)phenyl)-7-((5-(methyl(1-methylpiperidin-4-yl)amino)pyridin-2-yl)amino)-1,6-naphthyridin-2(1H)-one] |  |  | < 0.1 |  |  | 1 to 10 | < 1 |  |  |  |
| CCn1c(=O)c(-c2c(F)ccc(F)c2O)cc2cnc(Nc3ccc(N(C)C4CCN(C)CC4)cn3)cc21 [Compound 123, 3-(3,6-difluoro-2-hydroxyphenyl)-1-ethyl-7-((5-(methyl(1-methylpiperidin-4-yl)amino)pyridin-2-yl)amino)-1,6-naphthyridin-2(1H)-one] | < 0.1 | 1 to 10 |  | < 1 | < 0.1 |  |  | < 0.1 |  |  |
| CCn1c(=O)c(-c2c(C)cc(F)cc2C)cc2cnc(Nc3ccc(N(C)C4CCN(C)CC4)cn3)cc21 [Compound 124, 1-ethyl-3-(4-fluoro-2,6-dimethylphenyl)-7-((5-(methyl(1-methylpiperidin-4-yl)amino)pyridin-2-yl)amino)-1,6-naphthyridin-2(1H)-one] | < 0.1 | > 10 |  | < 1 | < 0.1 |  |  | < 0.1 |  |  |
| CN(C)CCCn1c(=O)c(-c2c(F)cccc2F)cc2cnc(Nc3ccc(F)cn3)cc21 [Compound 130, 3-(2,6-difluorophenyl)-1-(3-(dimethylamino)propyl)-7-((5-fluoropyridin-2-yl)amino)-1,6-naphthyridin-2(1H)-one] | < 0.1 | 1 to 10 |  | < 1 | < 0.1 |  |  | < 0.1 |  |  |
| O=c1c(-c2c(F)cccc2F)cc2cnc(Nc3ccc(F)cn3)cc2n1CCCN1CCOCC1 [Compound 131, 3-(2,6-difluorophenyl)-7-((5-fluoropyridin-2-yl)amino)-1-(3-morpholinopropyl)-1,6-naphthyridin-2(1H)-one] |  | > 10 |  | < 1 | < 0.1 |  |  | < 0.1 | 0.1 to 1 |  |
| CN1CCN(CCCn2c(=O)c(-c3c(F)cccc3F)cc3cnc(Nc4ccc(F)cn4)cc32)CC1 [Compound 132, 3-(2,6-difluorophenyl)-7-((5-fluoropyridin-2-yl)amino)-1-(3-(4-methylpiperazin-1-yl)propyl)-1,6-naphthyridin-2(1H)-one] | < 0.1 | > 10 |  | < 1 | < 0.1 |  |  | < 0.1 |  |  |
| CN1CCC(N(C)c2ccc(Nc3cc4c(cn3)cc(-c3c(F)cccc3F)c(=O)n4C3CCCC3)nc2)CC1 [Compound 139, 1-cyclopentyl-3-(2,6-difluorophenyl)-7-((5-(methyl(1-methylpiperidin-4-yl)amino)pyridin-2-yl)amino)-1,6-naphthyridin-2(1H)-one] | < 0.1 |  |  | < 1 | < 0.1 |  |  | < 0.1 |  | 1 to 10 |
| CN1CCC(N(C)c2ccc(Nc3cc4[nH]c(=O)c(-c5c(F)cccc5F)cc4cn3)nc2)CC1 [Compound 140, 3-(2,6-difluorophenyl)-7-((5-(methyl(1-methylpiperidin-4-yl)amino)pyridin-2-yl)amino)-1,6-naphthyridin-2(1H)-one] | < 0.1 | 1 to 10 |  | < 1 | < 0.1 |  |  | < 0.1 |  |  |
